The source made the active and inactive calls.
Key:
Bcl-2-like protein 10 = biological target: T1, Bcl-2-like protein 10 (Homo sapiens, UniProt Q9HD36); assay: Bcl-B/TR3 peptide binding disruption – biochemical, fluorescence polarization, FITC-TR3 peptide, selectivity assay for Bfl-1 inhibitor project, primary screen (AID 748);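 note: fluorescence polarization from a fluorescein-labelled TR3 peptide binding purified Bcl-B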
T1 sequence (Q9HD36 whole entry): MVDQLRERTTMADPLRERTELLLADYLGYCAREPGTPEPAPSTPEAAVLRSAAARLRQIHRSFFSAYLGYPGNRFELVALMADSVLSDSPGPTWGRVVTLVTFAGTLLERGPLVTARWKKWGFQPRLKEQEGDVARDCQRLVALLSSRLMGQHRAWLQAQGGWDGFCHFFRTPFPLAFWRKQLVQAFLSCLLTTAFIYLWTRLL

Estrogen receptor beta [1] = biological target: T2, Estrogen receptor beta (Homo sapiens, UniProt Q92731);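 note: recombinant ER-beta bound to coactivator SRC1 peptide in presence of estradiol agonist; inhibitors block coactivator peptide binding and lower the FRET signal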
Estrogen receptor beta [2] = biological target: T2, Estrogen receptor beta; assay: blockers of SRC-3 recruitment to ERβ – biochemical, ELISA, streptavidin-HRP readout, orthogonal assay, confirmation (AID 1060)
[3] = biological target: Luciferin 4-monooxygenase (Photinus pyralis, UniProt P08659); assay: Counter Screen for Luciferase-based Assay Positives. [Related pubchem assays: 620, 618, 411 ]
[4] = Luminescence Cell-Based Dose Response HTS to Identify Inhibitors of 5'UTR Stem-Loop Driven Prion Protein mRNA Translation in H4 Neuroglioblastoma Cells. [Related pubchem assays: 1827 (Project Summary), 1813 (Primary HTS)]; type: functional
[5] = alpha-synuclein stem-loop luciferase translation blockers – H4 neuroglioma cells, luminescence, confirmation (AID 1988); type: functional, cell-based
HT-1080 = assay: HT1080 cell viability loss – fluorescence readout (AID 620); type: functional, cell-based; details: Homo sapiens
[6] = M. tuberculosis H37Rv growth inhibitors, H37Rv strain (AID 1626); type: functional
[7] = Luminescent dose response cell-based high throughput screening assay for inhibitors of the Janus kinase 2 mutant JAK2V617F. [Related pubchem assays: 1446 (Primary screen.), 1521 (Confirmation assay.), 1486 (Counter screen.)]; type: functional
[8] = microbe, parasite or virus in culture; type: functional; details: Mycobacterium tuberculosis
[9] = biological target: T3, Microphthalmia-associated transcription factor (Homo sapiens, UniProt O75030); assay: reducers of TRPM1 reporter luminescence, concentration series – cell-based, SK-MEL-5, cherry-picked, set 3, MITF inhibitor project, dose response (AID 493073); type: functional;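 note: SK-MEL-5 melanoma cells with luciferase driven by the MITF target TRPM1 promoter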
T3 sequence (O75030 whole entry): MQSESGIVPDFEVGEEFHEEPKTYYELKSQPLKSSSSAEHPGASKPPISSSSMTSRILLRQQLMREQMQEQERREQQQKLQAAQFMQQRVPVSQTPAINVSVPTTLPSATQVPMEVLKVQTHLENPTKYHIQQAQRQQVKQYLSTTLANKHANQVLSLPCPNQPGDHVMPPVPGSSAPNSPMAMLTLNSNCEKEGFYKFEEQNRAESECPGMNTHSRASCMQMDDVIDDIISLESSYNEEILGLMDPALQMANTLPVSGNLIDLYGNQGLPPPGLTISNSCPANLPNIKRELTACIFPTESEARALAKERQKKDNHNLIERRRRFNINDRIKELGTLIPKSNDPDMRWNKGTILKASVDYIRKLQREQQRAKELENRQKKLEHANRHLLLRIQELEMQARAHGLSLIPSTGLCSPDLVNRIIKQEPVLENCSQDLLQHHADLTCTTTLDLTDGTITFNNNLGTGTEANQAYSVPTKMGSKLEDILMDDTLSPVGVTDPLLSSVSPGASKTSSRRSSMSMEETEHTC

[10] = biological target: T4, Replicative DNA helicase DnaB (Mycobacterium tuberculosis, UniProt P9WMR3); assay: DnaB intein splicing inhibitors, dose response, biochemical, cell-free fluorescence (AID 449749); type: functional
T4 sequence (P9WMR3 whole entry): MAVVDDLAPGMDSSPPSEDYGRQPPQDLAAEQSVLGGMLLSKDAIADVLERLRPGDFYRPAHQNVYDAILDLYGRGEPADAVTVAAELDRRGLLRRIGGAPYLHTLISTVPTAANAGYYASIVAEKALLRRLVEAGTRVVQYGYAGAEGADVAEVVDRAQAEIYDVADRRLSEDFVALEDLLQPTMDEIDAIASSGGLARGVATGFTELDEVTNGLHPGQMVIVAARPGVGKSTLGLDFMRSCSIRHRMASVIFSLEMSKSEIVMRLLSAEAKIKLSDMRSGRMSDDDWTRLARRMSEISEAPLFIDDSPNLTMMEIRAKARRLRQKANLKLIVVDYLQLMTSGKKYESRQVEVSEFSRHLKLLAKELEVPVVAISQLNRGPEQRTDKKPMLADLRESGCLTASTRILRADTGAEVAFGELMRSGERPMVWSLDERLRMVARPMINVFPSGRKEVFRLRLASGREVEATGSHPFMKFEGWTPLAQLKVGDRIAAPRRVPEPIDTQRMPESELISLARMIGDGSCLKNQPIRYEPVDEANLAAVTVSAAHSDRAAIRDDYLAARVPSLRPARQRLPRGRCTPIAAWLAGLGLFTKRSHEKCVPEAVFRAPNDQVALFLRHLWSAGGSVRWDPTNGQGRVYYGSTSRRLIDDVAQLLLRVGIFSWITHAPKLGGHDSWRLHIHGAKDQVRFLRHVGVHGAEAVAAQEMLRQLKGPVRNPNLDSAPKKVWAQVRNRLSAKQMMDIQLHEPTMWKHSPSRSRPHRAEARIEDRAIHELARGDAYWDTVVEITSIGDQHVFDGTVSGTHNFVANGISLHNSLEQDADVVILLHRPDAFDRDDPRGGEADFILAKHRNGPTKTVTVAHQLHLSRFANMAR

Protein RecA = biological target: T5, Protein RecA (Mycobacterium tuberculosis, UniProt P9WHJ3); assay: Fluorescence Cell-Free Homogeneous Dose Retest to Identify Inhibitors of RecA-Intein Splicing Activity. [Related pubchem assays (depositor defined):AID2097, AID2223, AID489010, AID492950]; type: functional
T5 sequence (P9WHJ3 whole entry): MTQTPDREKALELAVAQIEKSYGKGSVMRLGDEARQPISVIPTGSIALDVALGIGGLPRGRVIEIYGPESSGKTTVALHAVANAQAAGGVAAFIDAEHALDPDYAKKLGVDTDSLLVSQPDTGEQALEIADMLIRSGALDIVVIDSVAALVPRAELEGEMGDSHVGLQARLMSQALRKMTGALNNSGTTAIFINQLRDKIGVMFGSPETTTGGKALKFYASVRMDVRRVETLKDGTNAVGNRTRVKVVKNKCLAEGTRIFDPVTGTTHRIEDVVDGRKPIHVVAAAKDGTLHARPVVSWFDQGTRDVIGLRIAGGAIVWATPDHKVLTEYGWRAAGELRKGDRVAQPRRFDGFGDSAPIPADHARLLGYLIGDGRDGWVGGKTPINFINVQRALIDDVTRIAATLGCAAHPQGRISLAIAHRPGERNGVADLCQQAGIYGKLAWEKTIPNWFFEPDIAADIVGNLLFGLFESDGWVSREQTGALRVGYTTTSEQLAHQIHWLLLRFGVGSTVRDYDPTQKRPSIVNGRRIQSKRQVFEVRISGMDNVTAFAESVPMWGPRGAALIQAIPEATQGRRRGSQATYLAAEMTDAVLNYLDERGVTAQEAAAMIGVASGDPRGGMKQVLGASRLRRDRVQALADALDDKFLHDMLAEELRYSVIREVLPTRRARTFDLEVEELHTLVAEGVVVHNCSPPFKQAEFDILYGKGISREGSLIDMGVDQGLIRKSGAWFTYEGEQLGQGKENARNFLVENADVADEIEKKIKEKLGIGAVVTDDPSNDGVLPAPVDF

[11] = Trypanosoma cruzi growth suppression in host cells – NIH3T3 host cells, beta-gal luminescence, confirmation (AID 2044); type: functional, cell-based;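 note: intracellular parasites grown in NIH/3T3 mouse fibroblasts as host cells; luminescent beta-galactosidase reporter signal from transgenic T. cruzi replicating inside host cells; inhibitors lower the luminescence signal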
[12] = NIH3T3 cell viability loss – ATP luminescence, mouse fibroblasts, counter-screen, dose response (AID 2010); type: functional, cell-based;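 note: cells exposed to compound for about 90 hours before reading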
cells [13] = assay: cells
[14] = biological target: Voltage-gated inwardly rectifying potassium channel KCNH2 (Homo sapiens, UniProt Q12809); assay: concentration-dependent hERG rescue from blockers – cell-based, thallium flux, dose response (AID 2121); type: ADME
[15] = biological target: T6, Corticotropin-releasing factor receptor 2/Corticotropin-releasing factor-binding protein (Homo sapiens, UniProt P24387+Q13324); assay: activators of CRF receptor 2 with binding protein – uHTS hits, confirmation (AID 602473); type: functional; details: read-out: EC50_Mean
T6 sequence (Q13324 whole entry): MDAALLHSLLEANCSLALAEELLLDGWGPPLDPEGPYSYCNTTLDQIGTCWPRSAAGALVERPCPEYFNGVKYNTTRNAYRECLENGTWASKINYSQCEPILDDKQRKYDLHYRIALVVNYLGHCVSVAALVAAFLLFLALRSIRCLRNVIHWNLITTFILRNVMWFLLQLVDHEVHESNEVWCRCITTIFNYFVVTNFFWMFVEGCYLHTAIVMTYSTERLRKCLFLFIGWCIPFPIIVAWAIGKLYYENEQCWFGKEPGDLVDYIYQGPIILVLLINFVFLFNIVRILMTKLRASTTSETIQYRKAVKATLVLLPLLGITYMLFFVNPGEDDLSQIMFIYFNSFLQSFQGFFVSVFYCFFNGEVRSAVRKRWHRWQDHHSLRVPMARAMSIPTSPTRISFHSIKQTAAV
T6 sequence (P24387 whole entry): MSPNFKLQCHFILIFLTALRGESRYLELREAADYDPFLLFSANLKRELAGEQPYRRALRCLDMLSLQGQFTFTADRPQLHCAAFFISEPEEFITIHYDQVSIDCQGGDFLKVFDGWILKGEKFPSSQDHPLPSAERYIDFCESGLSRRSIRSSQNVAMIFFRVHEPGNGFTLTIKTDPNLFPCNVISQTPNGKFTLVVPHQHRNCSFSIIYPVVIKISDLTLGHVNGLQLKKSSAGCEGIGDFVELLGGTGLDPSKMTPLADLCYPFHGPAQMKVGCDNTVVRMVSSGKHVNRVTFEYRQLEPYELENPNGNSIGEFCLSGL

[16] = viability of uninfected HEp-2 cells – cell-based, HTS, cytotoxicity control for RSV inhibitor project, dose response (AID 2410); type: functional; details: human respiratory syncytial virus
Vero = assay: mammalian cell viability reduction – secondary assay, cytotoxicity control for West Nile virus antiviral project, dose response (AID 1650); type: functional; details: Chlorocebus sabaeus
[17] = biological target: T6, Corticotropin-releasing factor receptor 2/Corticotropin-releasing factor-binding protein; assay: Dose Response confirmation of uHTS hits for small molecule antagonists of the CRF-binding protein and CRF-R2 receptor complex.; type: functional; details: read-out: IC50_Mean
cells [18] = assay: cells; remark: listed apart in the source

T2 sequence (Q92731 whole entry): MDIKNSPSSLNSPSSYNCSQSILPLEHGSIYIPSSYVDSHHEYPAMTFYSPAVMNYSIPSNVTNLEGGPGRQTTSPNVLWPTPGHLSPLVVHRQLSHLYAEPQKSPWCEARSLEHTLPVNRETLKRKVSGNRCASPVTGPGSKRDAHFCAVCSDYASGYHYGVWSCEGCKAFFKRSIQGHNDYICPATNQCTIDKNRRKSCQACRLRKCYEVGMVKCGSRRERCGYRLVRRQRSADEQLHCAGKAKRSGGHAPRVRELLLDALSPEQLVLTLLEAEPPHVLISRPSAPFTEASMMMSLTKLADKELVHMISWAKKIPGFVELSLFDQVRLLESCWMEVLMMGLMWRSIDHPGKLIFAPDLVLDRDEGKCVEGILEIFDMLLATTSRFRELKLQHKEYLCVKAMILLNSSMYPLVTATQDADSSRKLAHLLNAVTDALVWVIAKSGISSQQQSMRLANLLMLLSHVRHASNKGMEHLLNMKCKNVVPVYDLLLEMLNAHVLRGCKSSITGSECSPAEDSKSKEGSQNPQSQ
Voltage-gated inwardly rectifying potassium channel KCNH2, sequence (Q12809 whole entry): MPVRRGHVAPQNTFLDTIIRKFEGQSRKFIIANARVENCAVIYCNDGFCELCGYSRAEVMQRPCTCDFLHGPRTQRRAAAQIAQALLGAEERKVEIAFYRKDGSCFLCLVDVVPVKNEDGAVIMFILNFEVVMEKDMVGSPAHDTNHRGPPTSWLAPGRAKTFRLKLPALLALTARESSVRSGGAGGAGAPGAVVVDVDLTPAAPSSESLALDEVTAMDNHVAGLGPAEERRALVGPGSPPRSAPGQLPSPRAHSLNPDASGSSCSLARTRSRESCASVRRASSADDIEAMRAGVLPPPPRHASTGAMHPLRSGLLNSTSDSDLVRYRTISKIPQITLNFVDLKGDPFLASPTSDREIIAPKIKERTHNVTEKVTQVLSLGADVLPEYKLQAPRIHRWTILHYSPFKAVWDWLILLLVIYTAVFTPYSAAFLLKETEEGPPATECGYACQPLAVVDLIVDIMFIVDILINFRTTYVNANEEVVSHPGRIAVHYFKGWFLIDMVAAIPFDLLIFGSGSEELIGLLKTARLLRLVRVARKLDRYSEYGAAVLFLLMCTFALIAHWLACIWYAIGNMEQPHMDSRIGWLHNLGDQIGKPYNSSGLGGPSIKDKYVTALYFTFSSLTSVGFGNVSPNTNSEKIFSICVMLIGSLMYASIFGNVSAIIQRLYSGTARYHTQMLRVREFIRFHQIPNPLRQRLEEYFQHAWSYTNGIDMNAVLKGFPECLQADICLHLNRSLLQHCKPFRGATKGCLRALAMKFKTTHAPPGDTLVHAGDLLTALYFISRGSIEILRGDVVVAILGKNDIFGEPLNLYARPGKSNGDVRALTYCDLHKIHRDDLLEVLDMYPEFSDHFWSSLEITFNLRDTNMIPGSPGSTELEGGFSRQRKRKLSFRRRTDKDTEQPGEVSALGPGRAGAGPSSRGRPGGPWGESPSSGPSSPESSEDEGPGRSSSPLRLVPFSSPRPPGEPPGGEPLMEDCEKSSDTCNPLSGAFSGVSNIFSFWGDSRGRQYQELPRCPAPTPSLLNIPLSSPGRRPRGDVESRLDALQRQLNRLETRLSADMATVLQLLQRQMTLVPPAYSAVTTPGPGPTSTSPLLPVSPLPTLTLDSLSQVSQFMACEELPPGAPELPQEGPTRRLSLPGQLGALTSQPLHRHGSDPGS
Luciferin 4-monooxygenase, sequence (P08659 whole entry): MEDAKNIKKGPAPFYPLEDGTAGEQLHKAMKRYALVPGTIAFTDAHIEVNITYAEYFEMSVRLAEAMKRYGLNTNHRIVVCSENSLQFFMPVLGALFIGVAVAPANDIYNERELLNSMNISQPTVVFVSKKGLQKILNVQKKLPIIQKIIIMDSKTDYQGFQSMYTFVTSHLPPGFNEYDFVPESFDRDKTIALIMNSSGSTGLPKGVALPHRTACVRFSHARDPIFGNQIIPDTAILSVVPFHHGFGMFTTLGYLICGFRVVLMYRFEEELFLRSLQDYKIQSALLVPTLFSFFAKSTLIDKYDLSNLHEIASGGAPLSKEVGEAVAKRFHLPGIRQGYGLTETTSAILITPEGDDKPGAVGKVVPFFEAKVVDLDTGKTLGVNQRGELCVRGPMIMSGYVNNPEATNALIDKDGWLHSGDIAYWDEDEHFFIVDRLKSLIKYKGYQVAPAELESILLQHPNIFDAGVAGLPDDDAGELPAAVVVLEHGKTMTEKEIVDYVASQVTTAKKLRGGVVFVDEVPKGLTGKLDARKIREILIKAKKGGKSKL

In the case of `CCS(=O)(=O)N1Cc2ccccc2CC1C(=O)N1CCN(c2cccc(C)c2C)CC1` (centres undefined), the IC50 (Bcl-2-like protein 10) is reported as 80 µM (inactive), the IC50 (Estrogen receptor beta [1]) is reported as > 50 µM (not active) and the IC50 (Estrogen receptor beta [2]) is reported as 2.96 µM (not active).
For `CNC(=O)c1c(NC(=O)c2nc3ccccc3s2)sc2c1CCC2`, the IC50 (Estrogen receptor beta [1]) was > 50 µM (not active) and the IC50 (Estrogen receptor beta [2]) was < 0.023 µM (not active).
In the case of `Cn1ccnc1SCc1cn2cc(Br)ccc2n1`, the EC50 [3] is reported as 38.1 µM (active), the EC50 [4] is reported as 7.92 µM (active) and the EC50 [5] is reported as 7.22 µM (inconclusive). The EC50 (HT-1080) was > 50 µM (not active).
In the case of `O=C(CCc1nc(-c2cccs2)no1)Nc1cnc2ccccc2c1`, the IC50 [6] is reported as > 100 µM (active).
In the case of `Cc1nccc(-c2ccc(-n3c(C)ccc3C)cc2)n1`, the IC50 [6] is reported as > 100 µM (active).
For `CC1CCCC(NC(=O)NC(=O)CCl)C1C` (centres undefined), the IC50 [7] was 1.02 µM (active), the CC50 [8] was 10.4 µM (active) and the AC50 [9] was 12.4 µM (active). For the same compound, the AC50 [10] was 23.2 µM (active) and the EC50 (Protein RecA) was 6.19 µM (active).
In the case of `CCc1c(C)c(C#N)c2nc3ccccc3n2c1NCCN(C)C`, the EC50 [11] is reported as < 100 nM (active), the EC50 [12] is reported as > 30 µM (not active) and the EC50 (cells [13]) is reported as 14 nM (active).
In the case of `CCOc1ccc2nc(/N=C/c3nc(-c4ccc(Br)cc4)oc3O)sc2c1`, the EC50 [14] is reported as 160 nM (active) and the EC50 [15] is reported as > 53 µM (inactive).
With `Cc1cc(=O)oc2c1ccc1oc(/C(=N/O)c3ccccc3)c(C)c12` the CC50 [16] was < 0.1 µM (active), the CC50 (Vero) was 18.1 µM (active) and the IC50 [17] was 24.5 µM (active). The EC50 [15] was > 53 µM (inactive) and the IC50 (cells [18]) was 18.3 µM (active).
For `O=c1cnn([C@@H]2O[C@H](CO)[C@@H](O)[C@H]2O)c(=O)[nH]1` [6-AZAURIDINE], the IC50 [7] was 2.32 µM (active), the CC50 [16] was 11.9 µM (active) and the IC50 (cells [18]) was 2.28 µM (active).
